Data: patent publication US20130143869A1, “USE OF A CATIONIC AMPHIPHILIC DRUG FOR THE PREPARATION OF A FORMULATION FOR THE REDUCTION OF SUBCUTANEOUS ADIPOSE TISSUE” (Merz Pharma GmbH & CO. KGaA, priority 2010, published 2013)
pIC50: −log10 of the molar value.

Key:
human adipocyte cells [1] = assay: Cytotoxicity assay: metabolic activity (resazurin conversion) of human adipocytes; assay type: cell-based; conditions: read-out: IC50 (metabolic activity after 48 hrs); Example 1, 48 hrs exposure, resazurin
Protocol: (§1) HWP were obtained in passage two and differentiated in vitro to mature adipocytes. Briefly, cells were initially cultured in preadipocyte growth medium at 37° C. and 5% CO2 to 70-80% confluency. Then, cells were seeded at 40,000 cells/ml into 96-well flat bottom tissue culture plates and incubated overnight to allow attachment. Differentiation was initiated by changing the medium to preadipopcyte differentiation medium for an additional 72 hrs. After differentiation was induced, the medium was replaced by adipocyte nutrition medium that was refreshed every 2-3 days over a period of 14 days until termination of differentiation. Differentiation status was checked via nile red staining of control cells.
(§2) The test items 1 to 8 were prepared according to Table 1 to yield respective stock solutions. Said stock solutions were further diluted in assay media to obtain the double concentrated working solutions, which were subsequently diluted 1:2 in the final assay. […] Deoxycholate Na was selected as “reference compound”.
(§3) For the cytotoxicity assays in this study pre-adipocytes were seeded at 40,000 cells/ml into a 96-well microtiter flat bottom plate. The test items were prepared in separate plates starting with the double concentrated maximal test concentration followed by a 1:2 serial dilution (Chloroquine and Fluoxetine 1:3) and then added to the cells. The test items were tested at 6 replicates/concentration. Each plate included negative controls (media plus solvent, 6 replicates), a drug interference control (all concentrations, duplicates), a background control (14 replicates), a positive (=cytotoxic) control (6 replicates doxorubicin, 1 μM final) and a positive control for maximal LDH-release (2 replicates, 2% Triton-x 100 final).
(§4) Relative cell viability was determined after 48 hrs exposure based on metabolic activity (i.e. resazurin conversion). Using a Victor^3 1420 Multilabel Counter, the resazurin conversion to the fluorescent resorufin by metabolically active cells was recorded at 560Ex/590Em. Membrane integrity was measured after 6 hrs and 48 hrs and the enzymatic activity of released LDH in the cell supernatant after 30 min of incubation at 492 nmabsorption/690 nmreference by a spectrophotometer. The volume withdrawn from the cultures for the LDH-assay was not replaced to keep cells in a less disturbed environment. The assay was conducted in a multiplexed format.
In order to derive meaningful IC50 values from the primary data, the entire biological window of activity ranging from 0% to 100% viability should be covered and the resolution has to be sufficient. To improve data quality, the serial dilution factor used in previous experiments was reduced to a 1:2 and 1:3 dilution. […] IC50 (half maximal inhibitory concentration, calculated via Sigma Plot 10) values were determined for each test substance 1 to 8.
(§5) The effects on cytotoxicity in human adipocyte cells of a further 9 compounds were tested. The experimental set-up was identical to the one in example 1.

human adipocyte cells [2] = assay: Membrane integrity: LDH release from human adipocytes (LDH assay); assay type: cell-based; conditions: Example 1, 48 hrs, relative to Triton-x 100 maximal LDH release
Protocol: as §1, §3, §4
For the dose-response relationship, absolute absorption (OD treated wells−background) was plotted against the test item concentrations representing LDH leakage from the cells. For a better estimation of the test items' potential influencing the membrane integrity, relative, maximal LDH release in percent (see Table 2) was also calculated according to the following formula: […]
as §5

Human white adipocytes = assay: Apoptosis/necrosis detection, Annexin V-FITC/PI flow cytometry; assay type: cell-based
Description: The apoptotic program is characterized by certain morphologic features. Loss of plasma membrane asymmetry is a well established indicator for apoptotic cells. In apoptotic cells, the membrane phospholipid phosphatidylserine (PS) is translocated from the inner to the outer leaflet of the plasma membrane, thereby exposing PS to the external environment. In general, this PS translocation is preceded by caspase activation. Annexin V labelled with FITC is a Ca^2+ dependent phospholipid-binding protein with high affinity for PS and binds to cells with externalized PS. Cells stained with Annexin V*FITC are therefore considered in an early apoptotic stage.
Staining with Annexin V-FITC is typically used in conjunction with a vital dye such as propidium iodide (PI) to allow discrimination between early apoptotic and necrotic cells. Necrotic dying cells are PI positive only. Cells that are viable are Annexin V and PI negative; cells that entered apoptosis are Annexin V positive and PI negative and cells that are in post apoptotic and/or necrotic phase are both Annexin V and PI positive.
Human white adipocytes that had been differentiated in vitro from pre-adipocytes as describe above were used. Measurements were performed after 5 hrs to catch early apoptotic/necrotic events and after 24 hrs and 48 hrs for later stages. Naringenin at 500 μM (reported to induce apoptosis in adipocytes) was used as positive control and media plus solvent was used as negative control. Each compound was tested in three different concentrations. […] Two more concentrations, one below and one above the IC50 were added.
Flow cytometry was performed with a dual laser FC500. After completion of the staining procedure, tubes were grouped into a FC500 carousel for semi-automated data acquisition. Cells were first acquired in “Setup” mode to tune the parameters FS, SS, FL1 and FL2. After completion of the setup, baseline compensation was switched on and cells were acquired. Cells were acquired without life-gate but using FS threshold to exclude debris. All cells were acquired using individually corrected settings.
After completion of data acquisition, analysis was done using the CXP software. If necessary, software-based post acquisition compensation was performed to fine-correct for fluorescence overlap not adjusted for during the acquisition phase. Quadrant markers were set based on the negative controls.

[3] = Precipitation of test item in cytotoxicity assay media; assay type: physicochemical; conditions: above 500 μM
Protocol: as §2

**Q.** With CC(=O)N1CCN(c2ccc(OCC3COC(Cn4ccnc4)(c4ccc(Cl)cc4Cl)O3)cc2)CC1 (centres unmarked) [Test substance 5, Ketoconazole] as the molecule, how does the pIC50 (human adipocyte cells [1]) read?
**A.** 4.11

**Q.** And the “Rel. max. LDH release [%] 48 hrs” value (human adipocyte cells [2])?
**A.** 92.2%

**Q.** And the “primary mode of cell death” value (Human white adipocytes)?
**A.** Apoptosis can be considered primary mode of cell death at the lower concentration range with necrosis taking place later at higher concentrations

**Q.** What about the “Early Apoptosis [A-V*/PI*]” value (Human white adipocytes; 60 μM, 5 hrs) of the same molecule?
**A.** 26.5

**Q.** And the “Necrosis/ Late Apoptosis [A-V*/PI*]” value (Human white adipocytes; 60 μM, 5 hrs)?
**A.** 1.4

**Q.** And the “Normal [A-V*/PI]” value (Human white adipocytes; 60 μM, 5 hrs)?
**A.** 72.1

**Q.** What about the “Early Apoptosis [A-V*/PI*]” value (Human white adipocytes; 60 μM, 24 hrs) of the same molecule?
**A.** 19.5

**Q.** What about the “Necrosis/ Late Apoptosis [A-V*/PI*]” value (Human white adipocytes; 60 μM, 24 hrs) of the same molecule?
**A.** 2.6

**Q.** And the “Normal [A-V*/PI]” value (Human white adipocytes; 60 μM, 24 hrs)?
**A.** 77.9

**Q.** What about the “Early Apoptosis [A-V*/PI*]” value (Human white adipocytes; 60 μM, 48 hrs) of the same molecule?
**A.** 9.1

**Q.** And the “Necrosis/ Late Apoptosis [A-V*/PI*]” value (Human white adipocytes; 60 μM, 48 hrs)?
**A.** 3.8

**Q.** And the “Normal [A-V*/PI]” value (Human white adipocytes; 60 μM, 48 hrs)?
**A.** 87.1

**Q.** What about the “Early Apoptosis [A-V*/PI*]” value (Human white adipocytes; 80 μM, 5 hrs) of the same molecule?
**A.** 34

**Q.** And the “Necrosis/ Late Apoptosis [A-V*/PI*]” value (Human white adipocytes; 80 μM, 5 hrs)?
**A.** 2.2

**Q.** And the “Normal [A-V*/PI]” value (Human white adipocytes; 80 μM, 5 hrs)?
**A.** 63.8

**Q.** What about the “Early Apoptosis [A-V*/PI*]” value (Human white adipocytes; 80 μM, 24 hrs) of the same molecule?
**A.** 22.7

**Q.** What about the “Necrosis/ Late Apoptosis [A-V*/PI*]” value (Human white adipocytes; 80 μM, 24 hrs) of the same molecule?
**A.** 17.9

**Q.** What about the “Normal [A-V*/PI]” value (Human white adipocytes; 80 μM, 24 hrs) of the same molecule?
**A.** 59.4

**Q.** And the “Early Apoptosis [A-V*/PI*]” value (Human white adipocytes; 80 μM, 48 hrs)?
**A.** 18.5

**Q.** What about the “Necrosis/ Late Apoptosis [A-V*/PI*]” value (Human white adipocytes; 80 μM, 48 hrs) of the same molecule?
**A.** 44.9

**Q.** What about the “Normal [A-V*/PI]” value (Human white adipocytes; 80 μM, 48 hrs) of the same molecule?
**A.** 36.6

**Q.** And the “Early Apoptosis [A-V*/PI*]” value (Human white adipocytes; 100 μM, 5 hrs)?
**A.** 23.6

**Q.** And the “Necrosis/ Late Apoptosis [A-V*/PI*]” value (Human white adipocytes; 100 μM, 5 hrs)?
**A.** 3.1

**Q.** What about the “Normal [A-V*/PI]” value (Human white adipocytes; 100 μM, 5 hrs) of the same molecule?
**A.** 73.3

**Q.** What about the “Early Apoptosis [A-V*/PI*]” value (Human white adipocytes; 100 μM, 24 hrs) of the same molecule?
**A.** 16.9

**Q.** What about the “Necrosis/ Late Apoptosis [A-V*/PI*]” value (Human white adipocytes; 100 μM, 24 hrs) of the same molecule?
**A.** 82.6

**Q.** What about the “Normal [A-V*/PI]” value (Human white adipocytes; 100 μM, 24 hrs) of the same molecule?
**A.** 0.5

**Q.** What about the “Early Apoptosis [A-V*/PI*]” value (Human white adipocytes; 100 μM, 48 hrs) of the same molecule?
**A.** 36.9

**Q.** What about the “Necrosis/ Late Apoptosis [A-V*/PI*]” value (Human white adipocytes; 100 μM, 48 hrs) of the same molecule?
**A.** 52.5

**Q.** And the “Normal [A-V*/PI]” value (Human white adipocytes; 100 μM, 48 hrs)?
**A.** 0.5

**Q.** And the “apoptosis/necrosis induction in human adipocytes (in words)” value (Human white adipocytes; 5, 24, 48 hrs, concentrations as in Table 4)?
**A.** caused apoptosis after 5 hrs at 60, 80, and 100 μM increasing over time

**Q.** What about the “precipitation in assay media” value [3] of the same molecule?
**A.** generation of insoluble precipitates at higher concentrations
